Laboratory results reported in patent US20050239656A1, “Pyridine compounds or salts thereof and herbicides containing the same” (priority 2002, published 2005).

Each compound was assayed on barnyardgrass (assay: Test Example 1: foliage treatment, upland pot test). Details: active ingredient 500 g/ha, observed 18th to 23rd day, 0 = non-treated, 100 = complete kill.
Assay type: in vivo, Echinochloa crus-galli L.
In short: (§1)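 Visual growth-control score, 0% (like untreated) to 100% (complete kill), taken on days 18 to 23 after foliar spraying. Leaf stage at treatment: barnyardgrass 1.3–2.8, rice 1.2–2.6, wheat 1.3–2.4, soybean 0.1–0.4. Spray: wettable powder or EC in 500 L/ha water, 0.1% v/v spreader added.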

Going from `CC(C)C(c1cnccc1C(F)(F)F)N(C)C(=O)Cc1cc(F)ccc1F` (centres unmarked) [I-85] to `CC(C)C(c1cnccc1Cl)N(C)C(=O)Cc1ccccc1F` (centres unmarked) [I-66], the “Growth controlling degree (%) Barnyardgrass” value falls from 80% to 20%.

Each compound was assayed on crabgrass (assay: Test Example 1: foliage treatment, upland pot test). Details: active ingredient 500 g/ha, observed 18th to 23rd day, 0 = non-treated, 100 = complete kill.
Assay type: in vivo, Digitaria sanguinalis L.

Compared with `CC(C)C(c1cnccc1C(F)(F)F)N(C)C(=O)Cc1cc(F)ccc1F` (centres unmarked) [I-85], `CC(C)C(c1cnccc1Cl)N(C)C(=O)Cc1ccccc1F` (centres unmarked) [I-66] is lower in “Growth controlling degree (%) Crabgrass” value: 90% for the first, 70% for the second.

These compounds were tested on green foxtail (assay: Test Example 1: foliage treatment, upland pot test). Details: active ingredient 500 g/ha, observed 18th to 23rd day, 0 = non-treated, 100 = complete kill.
Assay type: in vivo, Setaria viridis L.

First: CC(C)C(c1cnccc1C(F)(F)F)N(C)C(=O)Cc1cc(F)ccc1F (centres unmarked) [I-85]
Second: CC(C)C(c1cnccc1Cl)N(C)C(=O)Cc1ccccc1F (centres unmarked) [I-66]
The “Growth controlling degree (%) Green foxtail” value of the first is higher: 85% for the first, 70% for the second.

The compounds below were run on redroot pigweed (assay: Test Example 1: foliage treatment, upland pot test). Details: active ingredient 500 g/ha, observed 18th to 23rd day, 0 = non-treated, 100 = complete kill.
Assay type: in vivo, Amaranthus retroflexus L.

First: CC(C)C(c1cnccc1C(F)(F)F)N(C)C(=O)Cc1cc(F)ccc1F (centres unmarked) [I-85]
Second: CC(C)C(c1cnccc1Cl)N(C)C(=O)Cc1ccccc1F (centres unmarked) [I-66]
The “Growth controlling degree (%) Redroot pigweed” value of the first is higher: 70% for the first, 50% for the second.

Each compound was assayed on prickly sida (assay: Test Example 1: foliage treatment, upland pot test). Details: active ingredient 500 g/ha, observed 18th to 23rd day, 0 = non-treated, 100 = complete kill.
Assay type: in vivo, Sida spinosa L.

Going from `CC(C)C(c1cnccc1C(F)(F)F)N(C)C(=O)Cc1cc(F)ccc1F` (centres unmarked) [I-85] to `CC(C)C(c1cnccc1Cl)N(C)C(=O)Cc1ccccc1F` (centres unmarked) [I-66], the “Growth controlling degree (%) Prickly sida” value falls from 80% to 60%.

Each compound was assayed on velvetleaf (assay: Test Example 1: foliage treatment, upland pot test). Details: active ingredient 500 g/ha, observed 18th to 23rd day, 0 = non-treated, 100 = complete kill.
Assay type: in vivo, Abutilon theophrasti MEDIC.

First: CC(C)C(c1cnccc1C(F)(F)F)N(C)C(=O)Cc1cc(F)ccc1F (centres unmarked) [I-85]
Second: CC(C)C(c1cnccc1Cl)N(C)C(=O)Cc1ccccc1F (centres unmarked) [I-66]
The “Growth controlling degree (%) Velvetleaf” value of the first is higher: 90% for the first, 70% for the second.

Each compound was assayed on rice (assay: Test Example 1: foliage treatment, upland pot test). Details: crop, active ingredient 500 g/ha, observed 18th to 23rd day, 0 = non-treated, 100 = complete kill.
Assay type: in vivo, Oryza sativa L.
In short: as §1

Compared with `CC(C)C(c1cnccc1C(F)(F)F)N(C)C(=O)Cc1cc(F)ccc1F` (centres unmarked) [I-85], `CC(C)C(c1cnccc1Cl)N(C)C(=O)Cc1ccccc1F` (centres unmarked) [I-66] is lower in “Growth controlling degree (%) Rice” value: 40% for the first, 10% for the second.

These compounds were tested on corn (assay: Test Example 1: foliage treatment, upland pot test). Details: crop, active ingredient 500 g/ha, observed 18th to 23rd day, 0 = non-treated, 100 = complete kill.
Assay type: in vivo, Zea mays L.
In short: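 Corn seeds were sown in upland field soil held in a 1/170,000 ha pot and grown to the 2.1 to 3.2 leaf stage. A wettable powder or emulsifiable concentrate of the test compound was diluted with water at 500 L/ha, given 0.1% (v/v) agricultural spreader, and sprayed onto the foliage with a small sprayer. Growth controlling degree (%) was scored visually 18th to 23rd days later, from 0 (non-treated) to 100 (complete kill).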

First: CC(C)C(c1cnccc1C(F)(F)F)N(C)C(=O)Cc1cc(F)ccc1F (centres unmarked) [I-85]
Second: CC(C)C(c1cnccc1Cl)N(C)C(=O)Cc1ccccc1F (centres unmarked) [I-66]
The “Growth controlling degree (%) Corn” value of the first is higher: 60% for the first, 40% for the second.

The compounds below were run on soybean (assay: Test Example 1: foliage treatment, upland pot test). Details: crop, active ingredient 500 g/ha, observed 18th to 23rd day, 0 = non-treated, 100 = complete kill.
Assay type: in vivo, Glycine max Merr.
In short: as §1

Compared with `CC(C)C(c1cnccc1C(F)(F)F)N(C)C(=O)Cc1cc(F)ccc1F` (centres unmarked) [I-85], `CC(C)C(c1cnccc1Cl)N(C)C(=O)Cc1ccccc1F` (centres unmarked) [I-66] is lower in “Growth controlling degree (%) Soybean” value: 80% for the first, 50% for the second.

The compounds below were run on barnyardgrass (assay: Test Example 2: soil surface treatment, upland pot test). Details: active ingredient 500 g/ha, observed 20th to 28th day.
Assay type: in vivo, Echinochloa crus-galli L.
In short: (§2)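 Seeds were sown in upland field soil in 1/170,000 ha pots. One day later, a wettable powder or emulsifiable concentrate at a predetermined active-ingredient rate, diluted in water at 1,500 L/ha, was sprayed onto the soil surface. Growth control (%) was scored visually 20–28 days after application (0 = untreated, 100 = complete kill).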

Compared with `CC(C)C(c1cnccc1C(F)(F)F)N(C)C(=O)Cc1cc(F)ccc1F` (centres unmarked) [I-85], `CC(C)C(c1cnccc1Cl)N(C)C(=O)Cc1ccccc1F` (centres unmarked) [I-66] is lower in “Growth controlling degree (%) Barnyardgrass” value: 100% for the first, 80% for the second.

The compounds below were run on crabgrass in the same assay as above. Details: active ingredient 500 g/ha, observed 20th to 28th day.
Assay type: in vivo, Digitaria sanguinalis L.
In short: as §2

Compared with `CC(C)C(c1cnccc1C(F)(F)F)N(C)C(=O)Cc1cc(F)ccc1F` (centres unmarked) [I-85], `CC(C)C(c1cnccc1Cl)N(C)C(=O)Cc1ccccc1F` (centres unmarked) [I-66] is lower in “Growth controlling degree (%) Crabgrass” value: 100% for the first, 90% for the second.

What follows are compounds tested on green foxtail in the same assay as above. Details: active ingredient 500 g/ha, observed 20th to 28th day.
Assay type: in vivo, Setaria viridis L.
In short: as §2

Going from `CC(C)C(c1cnccc1C(F)(F)F)N(C)C(=O)Cc1cc(F)ccc1F` (centres unmarked) [I-85] to `CC(C)C(c1cnccc1Cl)N(C)C(=O)Cc1ccccc1F` (centres unmarked) [I-66], the “Growth controlling degree (%) Green foxtail” value falls from 100% to 50%.

The compounds below were run on redroot pigweed in the same assay as above. Details: active ingredient 500 g/ha, observed 20th to 28th day.
Assay type: in vivo, Amaranthus retroflexus L.
In short: as §2

Going from `CC(C)C(c1cnccc1C(F)(F)F)N(C)C(=O)Cc1cc(F)ccc1F` (centres unmarked) [I-85] to `CC(C)C(c1cnccc1Cl)N(C)C(=O)Cc1ccccc1F` (centres unmarked) [I-66], the “Growth controlling degree (%) Redroot pigweed” value falls from 90% to 60%.

The compounds below were run on prickly sida in the same assay as above. Details: active ingredient 500 g/ha, observed 20th to 28th day.
Assay type: in vivo, Sida spinosa L.
In short: as §2

First: CC(C)C(c1cnccc1C(F)(F)F)N(C)C(=O)Cc1cc(F)ccc1F (centres unmarked) [I-85]
Second: CC(C)C(c1cnccc1Cl)N(C)C(=O)Cc1ccccc1F (centres unmarked) [I-66]
The “Growth controlling degree (%) Prickly sida” value of the first is higher: 100% for the first, 30% for the second.

The compounds below were run on velvetleaf in the same assay as above. Details: active ingredient 500 g/ha, observed 20th to 28th day.
Assay type: in vivo, Abutilon theophrasti MEDIC.
In short: as §2

Going from `CC(C)C(c1cnccc1C(F)(F)F)N(C)C(=O)Cc1cc(F)ccc1F` (centres unmarked) [I-85] to `CC(C)C(c1cnccc1Cl)N(C)C(=O)Cc1ccccc1F` (centres unmarked) [I-66], the “Growth controlling degree (%) Velvetleaf” value falls from 80% to 40%.

These compounds were tested on rice in the same assay as above. Details: active ingredient 500 g/ha, observed 20th to 28th day.
Assay type: in vivo, Oryza sativa L.
In short: as §2

First: CC(C)C(c1cnccc1C(F)(F)F)N(C)C(=O)Cc1cc(F)ccc1F (centres unmarked) [I-85]
Second: CC(C)C(c1cnccc1Cl)N(C)C(=O)Cc1ccccc1F (centres unmarked) [I-66]
The “Growth controlling degree (%) Rice” value of the first is lower: 10% for the first, 40% for the second.

These compounds were tested on corn in the same assay as above. Details: active ingredient 500 g/ha, observed 20th to 28th day.
Assay type: in vivo, Zea mays L.
In short: as §2

`CC(C)C(c1cnccc1C(F)(F)F)N(C)C(=O)Cc1cc(F)ccc1F` (centres unmarked) [I-85] and `CC(C)C(c1cnccc1Cl)N(C)C(=O)Cc1ccccc1F` (centres unmarked) [I-66] are the same in “Growth controlling degree (%) Corn” value: 10% for the first, 10% for the second.

Each compound was assayed on soybean in the same assay as above. Details: active ingredient 500 g/ha, observed 20th to 28th day.
Assay type: in vivo, Glycine max Merr.
In short: as §2

Compared with `CC(C)C(c1cnccc1C(F)(F)F)N(C)C(=O)Cc1cc(F)ccc1F` (centres unmarked) [I-85], `CC(C)C(c1cnccc1Cl)N(C)C(=O)Cc1ccccc1F` (centres unmarked) [I-66] is higher in “Growth controlling degree (%) Soyabean” value: 40% for the first, 50% for the second.

Each compound was assayed on barnyardgrass (assay: Test Example 3: paddy pot test, application under submerged conditions). Details: active ingredient 125 g/ha; submerged application at 0.5 leaf stage; visually observed 14 days after application; 0 = non-treated, 100 = complete kill.
Assay type: in vivo, Echinochloa crus-galli L.
In short: (§3)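 Barnyardgrass and japanese bulrush sown in flooded paddy soil in greenhouse pots, japanese ribbon wapato tubers planted 1–2 days later; water depth kept at 3–4 cm. Diluted wettable powder or emulsifiable concentrate applied into water at 0.5-leaf or primary-leaf stage at set active-ingredient doses. Growth control scored visually at 14 days, 0 (untreated) to 100% (complete kill).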

In the case of `CC(C)C(c1cnccc1Cl)N(C)C(=O)Cc1ccccc1F` (centres unmarked) [I-66], the “Growth controlling degree (%) Barnyardgrass” value is reported as 98%.

Same assay, conditions: active ingredient 250 g/ha; submerged application at 0.5 leaf stage; visually observed 14 days after application; 0 = non-treated, 100 = complete kill

With `CC(C)C(c1cnccc1C(F)(F)F)N(C)C(=O)Cc1cc(F)ccc1F` (centres unmarked) [I-85] the “Growth controlling degree (%) Barnyardgrass” value was 100%.

Each compound was assayed on japanese bulrush in the same assay as above. Details: active ingredient 125 g/ha; submerged application at 0.5 leaf stage; visually observed 14 days after application; 0 = non-treated, 100 = complete kill.
Assay type: in vivo, Scirpus juncoides
In short: as §3

`CC(C)C(c1cnccc1Cl)N(C)C(=O)Cc1ccccc1F` (centres unmarked) [I-66] was tested, and the “Growth controlling degree (%) Japanese bulrush” value was 90%.

Same assay, conditions: active ingredient 250 g/ha; submerged application at 0.5 leaf stage; visually observed 14 days after application; 0 = non-treated, 100 = complete kill

For `CC(C)C(c1cnccc1C(F)(F)F)N(C)C(=O)Cc1cc(F)ccc1F` (centres unmarked) [I-85], the “Growth controlling degree (%) Japanese bulrush” value was 98%.

What follows are compounds tested on japanese ribbon wapato in the same assay as above. Details: active ingredient 125 g/ha; submerged application at primary leaf stage; visually observed 14 days after application; 0 = non-treated, 100 = complete kill.
Assay type: in vivo, Sagittaria pygniaea
In short: as §3

In the case of `CC(C)C(c1cnccc1Cl)N(C)C(=O)Cc1ccccc1F` (centres unmarked) [I-66], the “Growth controlling degree (%) Japanese ribbon wapato” value is reported as 10%.

Same assay, conditions: active ingredient 250 g/ha; submerged application at primary leaf stage; visually observed 14 days after application; 0 = non-treated, 100 = complete kill

For `CC(C)C(c1cnccc1C(F)(F)F)N(C)C(=O)Cc1cc(F)ccc1F` (centres unmarked) [I-85], the “Growth controlling degree (%) Japanese ribbon wapato” value was 70%.

The compounds below were run on rice (var. Nihonbare) (assay: Test Example 3: paddy pot test, transplanted rice). Details: active ingredient 125 g/ha, applied 4th day after transplantation, visually observed 21st day after application, 0 = non-treated, 100 = complete kill.
Assay type: in vivo, Oryza sativa L.
In short: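 Rice (var. Nihonbare) at 2 leaf stage transplanted 3 cm deep into puddled paddy soil under 3–4 cm flooding; on day 4 after transplanting, diluted wettable powder or emulsifiable concentrate applied by pipette under submerged conditions at a set active-ingredient dose. Growth scored visually 21 days after application, 0 (untreated) to 100 (complete kill) %.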

For `CC(C)C(c1cnccc1Cl)N(C)C(=O)Cc1ccccc1F` (centres unmarked) [I-66], the “Growth controlling degree (%) Rice” value was 10%.

Same assay, conditions: active ingredient 250 g/ha, applied 4th day after transplantation, visually observed 21st day after application, 0 = non-treated, 100 = complete kill

In the case of `CC(C)C(c1cnccc1C(F)(F)F)N(C)C(=O)Cc1cc(F)ccc1F` (centres unmarked) [I-85], the “Growth controlling degree (%) Rice” value is reported as 0%.
